# Data as given in ChEMBL document CHEMBL1201862, “PubChem BioAssay data set” (2004).
#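 A five-concentration, 48-hour dose response in 96-well plates underlies each endpoint, interpolated linearly between surrounding concentrations. GI50 is the concentration that inhibits growth by half.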 Activity calls are given as the source filed them. Cut-off read from the data, not from the text of the source: active = GI50 up to about 1.1 µM and inactive = higher.
# How the values were obtained:
# Experiment in all cases: growth of human tumour cells (NCI), 48 h
# NCI/ADR-RES = test system: NCI/ADR-RES
# SNB-75 = test system: SNB-75
# SK-MEL-5 = test system: SK-MEL-5
# LOX IMVI = test system: LOX IMVI
# NCI-H226 = test system: NCI-H226
# EKVX = test system: EKVX
# OVCAR-4 = test system: OVCAR-4
# SF-295 = test system: SF-295
# SF-268 = test system: SF-268
# SW-620 = test system: SW-620
# CCRF-CEM = test system: CCRF-CEM
# SK-OV-3 = test system: SK-OV-3
# A549 = test system: A549
# Hs-578T = test system: Hs-578T
# HL-60 = test system: HL-60
# KM12 = test system: KM12
# PC-3 = test system: PC-3
# MDA-MB-231 = test system: MDA-MB-231
# UACC-257 = test system: UACC-257
# HCC 2998 = test system: HCC 2998
SMILES,GI50 (NCI/ADR-RES),GI50 (SNB-75),GI50 (SK-MEL-5),GI50 (LOX IMVI),GI50 (NCI-H226),GI50 (EKVX),GI50 (OVCAR-4),GI50 (SF-295),GI50 (SF-268),GI50 (SW-620),GI50 (CCRF-CEM),GI50 (SK-OV-3),GI50 (A549),GI50 (Hs-578T),GI50 (HL-60),GI50 (KM12),GI50 (PC-3),GI50 (MDA-MB-231),GI50 (UACC-257),GI50 (HCC 2998)
Sc1nnc(SCc2ccccc2Cl)c2nc[nH]c12,> 100 µM (inactive),> 100 µM (inactive),> 100 µM (inactive),> 100 µM (inactive),> 100 µM (inactive),74.8 µM (inactive),> 100 µM (inactive),> 100 µM (inactive),> 100 µM (inactive),> 100 µM (inactive),> 100 µM (inactive),> 100 µM (inactive),> 100 µM (inactive),> 100 µM (inactive),> 100 µM (inactive),> 100 µM (inactive),> 100 µM (inactive),> 100 µM (inactive),> 100 µM (inactive),
Nc1nc2c(=O)c3ccccc3sc2s1,25.9 µM (inactive),40.5 µM (inactive),35.5 µM (inactive),46.1 µM (inactive),21.7 µM (inactive),23 µM (inactive),,44.1 µM (inactive),40.6 µM (inactive),> 100 µM (inactive),78.3 µM (inactive),,33.7 µM (inactive),43.7 µM (inactive),28.9 µM (inactive),> 100 µM (inactive),60 µM (inactive),31.9 µM (inactive),54.2 µM (inactive),
COc1ccc(/N=N/c2c(C)c(C#N)c(=S)n(C3OC(CO)C(O)C(O)C3O)c2C)cc1 (centres undefined),> 100 µM (inactive),83.6 µM (inactive),14.5 µM (inactive),56.4 µM (inactive),,,57.4 µM (inactive),52.1 µM (inactive),45.9 µM (inactive),44.1 µM (inactive),23.7 µM (inactive),> 100 µM (inactive),52.1 µM (inactive),41.4 µM (inactive),38.3 µM (inactive),73.1 µM (inactive),31.5 µM (inactive),62.8 µM (inactive),71.9 µM (inactive),
O=c1cc(-c2ccncc2)[nH]c2cc3c(cc12)OCO3,> 100 µM (inactive),49.7 µM (inactive),> 100 µM (inactive),,> 100 µM (inactive),> 100 µM (inactive),> 100 µM (inactive),> 100 µM (inactive),> 100 µM (inactive),> 100 µM (inactive),,> 100 µM (inactive),> 100 µM (inactive),> 100 µM (inactive),,> 100 µM (inactive),,> 100 µM (inactive),> 100 µM (inactive),> 100 µM (inactive)
Cc1ccc(S(=O)(=O)NC(=O)NC(C(=O)O)C(C)O)cc1 (centres undefined),> 100 µM (inactive),33.3 µM (inactive),> 100 µM (inactive),> 100 µM (inactive),,,> 100 µM (inactive),> 100 µM (inactive),> 100 µM (inactive),> 100 µM (inactive),> 100 µM (inactive),> 100 µM (inactive),> 100 µM (inactive),> 100 µM (inactive),> 100 µM (inactive),> 100 µM (inactive),> 100 µM (inactive),> 100 µM (inactive),> 100 µM (inactive),
COc1ccc(NC(=O)N(C)CC2(O)CCC(C(C)(C)C)CC2)cc1 (centres undefined),54.5 µM (inactive),52.6 µM (inactive),,25.2 µM (inactive),,56.4 µM (inactive),66.2 µM (inactive),29 µM (inactive),> 100 µM (inactive),> 100 µM (inactive),42.5 µM (inactive),80.9 µM (inactive),90.6 µM (inactive),33.9 µM (inactive),63.5 µM (inactive),42.7 µM (inactive),14.7 µM (inactive),41.8 µM (inactive),33.9 µM (inactive),
Cn1cc[n+](-c2cc(=O)n(C)c(=O)[n-]2)c1,> 100 µM (inactive),,97.7 µM (inactive),> 100 µM (inactive),91.8 µM (inactive),49.9 µM (inactive),94.4 µM (inactive),,> 100 µM (inactive),> 100 µM (inactive),> 100 µM (inactive),> 100 µM (inactive),> 100 µM (inactive),42.8 µM (inactive),> 100 µM (inactive),> 100 µM (inactive),> 100 µM (inactive),> 100 µM (inactive),> 100 µM (inactive),
Cc1nn(-c2ccccc2)c(C)c1/C=N/N=C1\S/C(=C\c2ccc(Cl)cc2)C(=O)N1c1ccccc1,17.2 µM (inactive),11.6 µM (inactive),> 100 µM (inactive),> 100 µM (inactive),> 100 µM (inactive),> 100 µM (inactive),2.15 µM (inactive),> 100 µM (inactive),51.5 µM (inactive),9.2 µM (inactive),> 100 µM (inactive),> 100 µM (inactive),10.7 µM (inactive),5.65 µM (inactive),11.8 µM (inactive),7.67 µM (inactive),> 100 µM (inactive),34.7 µM (inactive),> 100 µM (inactive),
CCCn1c(=O)c(N2CCN(c3ccccc3)CC2)nc2sc3ccccc3c21,> 100 µM (inactive),> 100 µM (inactive),> 100 µM (inactive),> 100 µM (inactive),,> 100 µM (inactive),> 100 µM (inactive),> 100 µM (inactive),> 100 µM (inactive),> 100 µM (inactive),> 100 µM (inactive),> 100 µM (inactive),> 100 µM (inactive),> 100 µM (inactive),49.7 µM (inactive),> 100 µM (inactive),> 100 µM (inactive),> 100 µM (inactive),> 100 µM (inactive),
COc1c2cc([N+](=O)[O-])cc1CN(C(=O)C(F)(F)F)CCOCCN(C(=O)C(F)(F)F)C2,,69.7 µM (inactive),> 100 µM (inactive),> 100 µM (inactive),> 100 µM (inactive),> 100 µM (inactive),> 100 µM (inactive),> 100 µM (inactive),> 100 µM (inactive),> 100 µM (inactive),> 100 µM (inactive),> 100 µM (inactive),> 100 µM (inactive),> 100 µM (inactive),> 100 µM (inactive),> 100 µM (inactive),> 100 µM (inactive),> 100 µM (inactive),> 100 µM (inactive),
CSC1=N/C(=C\c2ccco2)C(=O)N1CN1CCCCC1,> 100 µM (inactive),> 100 µM (inactive),55.1 µM (inactive),33.7 µM (inactive),> 100 µM (inactive),> 100 µM (inactive),,> 100 µM (inactive),92.3 µM (inactive),36.1 µM (inactive),,> 100 µM (inactive),> 100 µM (inactive),> 100 µM (inactive),,> 100 µM (inactive),> 100 µM (inactive),> 100 µM (inactive),,
CCCC(=O)C1=C(O)C(Cc2c(O)c(C)c(O)c(C(=O)CCC)c2O)=C(O)C(C)(C)C1=O,,29.4 µM (inactive),> 50 µM (inactive),19 µM (inactive),,> 50 µM (inactive),43.6 µM (inactive),16.9 µM (inactive),34.8 µM (inactive),13.9 µM (inactive),0.421 µM (active),22.6 µM (inactive),25.2 µM (inactive),40.6 µM (inactive),,23.8 µM (inactive),19.1 µM (inactive),> 50 µM (inactive),> 50 µM (inactive),10.9 µM (inactive)
Cc1csc(NCc2ccc(Cl)cc2)n1,46.6 µM (inactive),36.3 µM (inactive),23.7 µM (inactive),99.3 µM (inactive),33.8 µM (inactive),32.7 µM (inactive),37 µM (inactive),39.8 µM (inactive),51.2 µM (inactive),69.7 µM (inactive),39.1 µM (inactive),> 100 µM (inactive),40.5 µM (inactive),54.7 µM (inactive),33.1 µM (inactive),56.1 µM (inactive),37.8 µM (inactive),40.6 µM (inactive),67.8 µM (inactive),
C[Si](C)(C)C#Cc1cc(-c2nc3ccccc3s2)ccc1N,17.5 µM (inactive),12.7 µM (inactive),15.5 µM (inactive),17.8 µM (inactive),14.4 µM (inactive),12 µM (inactive),14.9 µM (inactive),18.6 µM (inactive),16.8 µM (inactive),18.1 µM (inactive),21.7 µM (inactive),19 µM (inactive),19.4 µM (inactive),20.8 µM (inactive),23.3 µM (inactive),15.2 µM (inactive),16.2 µM (inactive),17.2 µM (inactive),19.5 µM (inactive),
CC(=O)O[C@H]1CC[C@@]2(C)C(=CC[C@@H]3[C@@H]2CC[C@](C)(c2nnc(C)o2)[C@H]3CC#N)C1,> 100 µM (inactive),51.6 µM (inactive),> 100 µM (inactive),> 100 µM (inactive),> 100 µM (inactive),> 100 µM (inactive),> 100 µM (inactive),> 100 µM (inactive),> 100 µM (inactive),> 100 µM (inactive),> 100 µM (inactive),> 100 µM (inactive),> 100 µM (inactive),0.0735 µM (active),61.9 µM (inactive),> 100 µM (inactive),> 100 µM (inactive),> 100 µM (inactive),> 100 µM (inactive),
